Assay [1] has as its target T1, full-length NS3/4A protease (genotype 1b) (Hepatitis C virus genotype 1b, UniProt Q9WMX2).
T1 construct: wild-type HCV NS3 (HCV polyprotein residues 1027–1657); His-tag (N); made in house
Description: biochemical. Here is the method: All assays were done in duplicate in black 384-well plates (Matrix Technologies). […] 200 nL of 10 mM compound (50 µM final concentrations) were then added and incubated for 5 minutes. Enzyme reactions were initiated with 10 µL of substrate Ac-DE-Dap(QXL520)-EE-Abu-ψ-[COO]AS-C(5-FAMsp)-NH2 (Anaspec) (1 µM final concentration), incubated for 6 minutes, and quenched by 10 µL of 10% SDS as a stop solution. Fluorescence intensity was monitored with a POLARstar OPTIMA microplate reader (BMG LABTECH). Each plate contained a total of 32 positive and 32 negative controls.
A series of compound concentrations (0 to 200 µM final concentration at 2-fold serial dilution) in 100% DMSO were prepared in a 384-well plate. 20 µL of enzyme solution was distributed to wells, and 0.5 µL of varying concentration of compounds were added and incubated for 5 minutes. The enzyme reaction was initiated by adding 5 µL of the substrate, and its activity was continuously monitored for 6 minutes. The IC50 values were calculated by fitting with the Hill equation (1), with OriginPro 8.5 (OriginLab, Inc.) where y is percent inhibition, x is inhibitor concentration, n is the slope of the concentration–response curve (Hill slope), and Vmax is maximal inhibition from two to four independent assays. [drawing 1] (1)

Assay [2] concerns the target T2, HCV replicon cell lysate sg 2a (NS3) (Hepatitis C virus genotype 2a, UniProt Q99IB8).
T2 construct: expressed in transfected cells; host or cells: Huh7 cells stably replicating the JFH-1 subgenomic replicon; whole cell lysate
Description: Whole cell lysate inhibition assay, HCV subgenomic replicon 2a. In kind it is biochemical. Here is the method:
Huh7-1 cells (also known as Huh7/scr cells) were obtained from F.V. Chisari (The Scripps Research Institute, La Jolla, CA). Clone B HCV sub-genotype 1b Huh7 cells were obtained from the NIH AIDS Research and Reference Reagent Program and have been previously described. Huh7 cells stably replicating the sub-genotype 2a HCV JFH-1 replicon were generated as previously described. All cells were cultured in complete Dulbecco’s modified Eagle’s medium (DMEM) supplemented with 10% fetal bovine serum, 100 units/mL penicillin, […] streptomycin, and 2 mM L-glutamine. HCV replicon cells were maintained in 500 µg/mL Geneticin (Invitrogen). For NS3 inhibition analysis, lysates from parental Huh7 cells and HCV replicon cells were harvested on ice in pre-chilled FRET cell lysis buffer (50 mM Tris-HCl, pH 7.5; 150 mM NaCl, 2 mM EDTA, 1.25% Triton X-100). Lysates were brought to room temperature and mixed 1∶1 with 2× FRET assay buffer (100 mM Tris-HCl, pH 7.5, 300 mM NaCl, 4 mM EDTA, 2.5% Triton X-100, 10 mM GSH, and 4 µM substrate). Fluorescence intensity was continuously monitored for 1 hour, and IC50 values were determined in the same way as biochemical assays.

For assay [3], the target named is T3, full-length NS3/4A genotype 1b mutant R155K (Hepatitis C virus genotype 1b, UniProt Q9WMX2, R1181K).
T3 construct: wild-type HCV NS3 (HCV polyprotein residues 1027–1657); His-tag (N); made in house
In words: Inhibition assay with drug-resistant mutant R155K. The format is biochemical. How it is done:
(§1) The full-length genes of wild-type HCV NS3 (HCV polyprotein residues 1027–1657) with a his-tag at the N-terminus and NS4A (residues 1658–1711) with no tag were cloned, co-expressed, and purified as described. Eight NS3 drug resistant mutants (V36M, V36A, T54A, R155K, R155T, A156T, A156S, and 156V) were generated by mutagenesis using full-length, wild-type NS3-containing recombinant plasmid (pETDuet-1/FL NS3/4A) as a template. The over-expression and purification of all mutants were performed by the same method as the wild-type with minor modifications.
(§2) The inhibitory activity of the final hit compounds from HTS were tested against three other HCV genotypes (1a, 2a, and 4d), along with a control (genotype 1b) and five NS3 drug-resistant mutants. Eight full-length NS3 mutants (V36M, R155K, A156T, A156S, 156V, V36A, T54A, and R155T) were generated by mutagenesis and purified, and the three HCV NS3/4A protease genotypes were purchased from Anaspec. Unfortunately the enzyme activities of the three mutants V36A, T54A, and R155T were much less than that of the rest of the mutants and were insufficient for testing, therefore mutant studies were done with the five active mutants. Continuous kinetic assays were performed against all hit compounds in the same way as the wild-type NS3/4A. […]

Assay [4] deals with T4, full-length NS3/4A genotype 1b mutant A156T (Hepatitis C virus genotype 1b, UniProt Q9WMX2, A1182T).
T4 construct: wild-type HCV NS3 (HCV polyprotein residues 1027–1657); His-tag (N); made in house
In words: Inhibition assay with drug-resistant mutant A156T. In kind it is biochemical. Here is the method:
as §1, §2

Assay [5] deals with NS3/4A protease genotype 4d (Hepatitis C virus subtype 4d, UniProt Q1ZZ56). Description: Inhibition assay with NS3/4A from genotype 4d. The format is biochemical. Here is the method:
(§3) The inhibitory activity of the final hit compounds from HTS were tested against three other HCV genotypes (1a, 2a, and 4d), along with a control (genotype 1b) and five NS3 drug-resistant mutants. Eight full-length NS3 mutants (V36M, R155K, A156T, A156S, 156V, V36A, T54A, and R155T) were generated by mutagenesis and purified, and the three HCV NS3/4A protease genotypes were purchased from Anaspec. Unfortunately the enzyme activities of the three mutants V36A, T54A, and R155T were much less than that of the rest of the mutants and were insufficient for testing, therefore mutant studies were done with the five active mutants. Continuous kinetic assays were performed against all hit compounds in the same way as the wild-type NS3/4A. As a control, full-length NS3/4A (genotype 1b) was tested under the same conditions for direct comparison for each plate.

Assay [6] deals with T5, NS3/4A protease genotype 2a (Hepatitis C virus genotype 2a, UniProt Q99IB8).
T5 construct: against the NS3/4A protease domains from three additional HCV genotypes (1a, 2a, and 4d); purchased Anaspec
Description: Inhibition assay with NS3/4A from genotype 2a. The format is biochemical. How it is done: as §3

“And” between values parts separate entries of the source, which are not always exact repeats. Equal entries are not always repeated.

As for `Cc1cc(NC(=O)Cc2csc(NS(=O)(=O)c3ccccc3)n2)ccc1Br` [Compound 12], the LE in assay [1] (calculated with IC50 values from the full-length NS3/4A) was 0.29 kcal/mol/heavy atom. Moreover, the IC50 in assay [1] (purified full-length NS3/4A, genotype 1b wild-type, read-out: IC50 Full-length NS3/4A) was 2.2 ± 0.4 µM; in assay [2] (whole cell lysate, subgenomic replicon 2a), < 120 µM and 115 µM; in assay [3], ≤ 20 µM; in assay [4], ≤ 20 µM; in assay [5] it was < 20 µM; in assay [6] (IC50 Purified NS3/4A Sub-genotype 2a, genotype 2a), 12.7 ± 1.2 µM. The “fold increase of IC50, whole cell lysate 2a vs biochemical assay” value in assay [2] (sg2a lysate compared to purified enzyme) is listed as 10–20 fold. In addition, in assay [6] (purified enzymes), the “fold less effective against genotype 2a than 1b in the biochemical assay” value is on record as ~6 fold.

The values are drawn from article PMC3793977, “High-Throughput Screening (HTS) and Hit Validation to Identify Small Molecule Inhibitors with Activity against NS3/4A proteases from Multiple Hepatitis C Virus Genotypes” (PLoS ONE, 2013).
